Measured values: ChEMBL document CHEMBL4837249, “Discovery of Potent Antiallergic Agents Based on an o-Aminopyridinyl Alkynyl Scaffold” (J Med Chem, 2021)

Assays:
[1] = molecular target: Tyrosine-protein kinase ABL1 (Homo sapiens, UniProt P00519); assay: Inhibition of human recombinant ABL1 using ATP/Ulight-TK peptide at 500 nM incubated for 15 mins relative to control
[2] = molecular target: T1, Tyrosine-protein kinase ITK/TSK (Homo sapiens) (UniProt Q08881); assay: Inhibition of human recombinant ITK (352 to 617) at 500 nM by radiometric scintillation counting analysis relative to control
T1 sequence (whole entry): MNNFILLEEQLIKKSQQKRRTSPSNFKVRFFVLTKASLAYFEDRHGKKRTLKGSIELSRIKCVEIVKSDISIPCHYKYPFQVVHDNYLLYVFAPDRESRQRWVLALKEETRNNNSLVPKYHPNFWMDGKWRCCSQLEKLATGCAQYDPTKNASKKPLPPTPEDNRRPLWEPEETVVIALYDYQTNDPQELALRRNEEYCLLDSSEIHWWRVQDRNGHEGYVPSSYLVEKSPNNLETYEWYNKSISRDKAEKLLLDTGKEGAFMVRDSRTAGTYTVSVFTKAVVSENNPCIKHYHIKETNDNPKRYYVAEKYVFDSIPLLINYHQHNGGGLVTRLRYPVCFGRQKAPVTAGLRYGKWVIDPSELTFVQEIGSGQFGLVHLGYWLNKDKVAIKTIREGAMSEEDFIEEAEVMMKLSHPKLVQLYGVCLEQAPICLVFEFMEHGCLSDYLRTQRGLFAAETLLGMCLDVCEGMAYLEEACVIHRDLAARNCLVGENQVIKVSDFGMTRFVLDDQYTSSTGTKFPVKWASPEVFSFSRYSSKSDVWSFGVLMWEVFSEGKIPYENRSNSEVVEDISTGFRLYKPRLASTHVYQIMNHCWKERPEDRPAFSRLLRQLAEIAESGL

[3] = molecular target: Tyrosine-protein kinase Yes (Homo sapiens, UniProt P07947); assay: Inhibition of human full length recombinant Yes at 500 nM by radiometric scintillation counting analysis relative to control
Chain of Tyrosine-protein kinase Yes (P07947 2-543 limits assumed): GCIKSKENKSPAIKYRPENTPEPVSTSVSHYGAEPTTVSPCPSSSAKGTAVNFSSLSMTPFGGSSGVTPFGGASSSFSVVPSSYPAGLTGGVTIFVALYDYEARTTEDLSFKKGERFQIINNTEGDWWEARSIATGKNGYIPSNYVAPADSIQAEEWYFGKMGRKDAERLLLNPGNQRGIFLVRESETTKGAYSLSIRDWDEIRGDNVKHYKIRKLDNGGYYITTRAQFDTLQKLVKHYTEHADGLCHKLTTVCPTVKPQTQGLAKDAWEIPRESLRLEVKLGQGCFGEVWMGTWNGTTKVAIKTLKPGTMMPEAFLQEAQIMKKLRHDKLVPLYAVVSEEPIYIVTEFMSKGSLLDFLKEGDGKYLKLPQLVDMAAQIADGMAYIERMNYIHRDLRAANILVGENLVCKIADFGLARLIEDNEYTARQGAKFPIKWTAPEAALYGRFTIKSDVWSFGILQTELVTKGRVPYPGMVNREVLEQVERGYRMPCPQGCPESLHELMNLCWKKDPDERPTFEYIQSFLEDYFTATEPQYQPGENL

[4] = molecular target: Tyrosine-protein kinase HCK (Homo sapiens, UniProt P08631); assay: Inhibition of human recombinant HCK (230 to 497) at 50 nM by radiometric scintillation counting analysis relative to control
[5] = molecular target: T2, Tyrosine-protein kinase ZAP-70 (Homo sapiens) (UniProt P43403); assay: Inhibition of human full length recombinant ZAP70 at 5 nM by radiometric scintillation counting analysis relative to control
T2 sequence (whole entry): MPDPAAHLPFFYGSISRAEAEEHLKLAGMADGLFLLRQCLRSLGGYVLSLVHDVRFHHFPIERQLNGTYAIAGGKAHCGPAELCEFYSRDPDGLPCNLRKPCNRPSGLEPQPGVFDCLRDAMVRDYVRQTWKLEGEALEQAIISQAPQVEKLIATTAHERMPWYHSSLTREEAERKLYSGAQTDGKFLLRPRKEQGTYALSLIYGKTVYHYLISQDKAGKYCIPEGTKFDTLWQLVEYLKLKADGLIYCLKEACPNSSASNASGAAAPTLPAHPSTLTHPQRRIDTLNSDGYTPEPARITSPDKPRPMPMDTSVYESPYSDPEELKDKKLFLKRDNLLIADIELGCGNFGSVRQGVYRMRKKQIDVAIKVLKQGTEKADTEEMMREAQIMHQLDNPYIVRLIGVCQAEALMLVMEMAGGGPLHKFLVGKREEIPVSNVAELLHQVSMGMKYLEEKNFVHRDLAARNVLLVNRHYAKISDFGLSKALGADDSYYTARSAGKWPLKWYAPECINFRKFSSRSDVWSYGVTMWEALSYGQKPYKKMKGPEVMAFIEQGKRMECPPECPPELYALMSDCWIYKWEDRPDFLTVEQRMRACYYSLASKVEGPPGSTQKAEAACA

[6] = molecular target: Tyrosine-protein kinase Lyn (Homo sapiens, UniProt P07948); assay: Inhibition of human full length recombinant LYN at 5 nM by radiometric scintillation counting analysis relative to control
[7] = molecular target: Mast/stem cell growth factor receptor Kit (Homo sapiens) (UniProt P10721); assay: Inhibition of human recombinant c-Kit at 500 nM by radiometric scintillation counting analysis relative to control
[8] = molecular target: Macrophage colony-stimulating factor 1 receptor (Homo sapiens, UniProt P07333); assay: Inhibition of human recombinant CSF1R using ATP/Ulight-TK peptide at 5 nM incubated for 15 mins relative to control
[9] = molecular target: RAC-alpha serine/threonine-protein kinase (Homo sapiens) (UniProt P31749); assay: Inhibition of human recombinant PKBalpha at 50 nM radiometric scintillation counting analysis relative to control
Chain of RAC-alpha serine/threonine-protein kinase (Homo sapiens) (P31749 whole entry): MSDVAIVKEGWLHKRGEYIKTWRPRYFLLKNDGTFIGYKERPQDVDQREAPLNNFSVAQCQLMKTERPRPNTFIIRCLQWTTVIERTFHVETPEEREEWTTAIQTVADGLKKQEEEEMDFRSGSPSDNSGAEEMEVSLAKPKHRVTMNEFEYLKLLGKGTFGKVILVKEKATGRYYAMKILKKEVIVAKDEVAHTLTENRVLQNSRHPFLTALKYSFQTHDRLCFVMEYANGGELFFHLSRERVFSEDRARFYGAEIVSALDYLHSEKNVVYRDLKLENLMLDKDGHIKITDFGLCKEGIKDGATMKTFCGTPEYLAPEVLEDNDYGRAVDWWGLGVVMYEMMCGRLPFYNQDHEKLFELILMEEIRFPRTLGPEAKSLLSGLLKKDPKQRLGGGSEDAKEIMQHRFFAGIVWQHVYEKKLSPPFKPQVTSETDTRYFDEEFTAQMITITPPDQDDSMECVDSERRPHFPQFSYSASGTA

[10] = molecular target: Platelet-derived growth factor receptor beta (Homo sapiens) (UniProt P09619); assay: Inhibition of human recombinant PDGFRbeta (557 to end) at 5 nM by radiometric scintillation counting analysis relative to control
Chain of Platelet-derived growth factor receptor beta (Homo sapiens) (P09619 whole entry): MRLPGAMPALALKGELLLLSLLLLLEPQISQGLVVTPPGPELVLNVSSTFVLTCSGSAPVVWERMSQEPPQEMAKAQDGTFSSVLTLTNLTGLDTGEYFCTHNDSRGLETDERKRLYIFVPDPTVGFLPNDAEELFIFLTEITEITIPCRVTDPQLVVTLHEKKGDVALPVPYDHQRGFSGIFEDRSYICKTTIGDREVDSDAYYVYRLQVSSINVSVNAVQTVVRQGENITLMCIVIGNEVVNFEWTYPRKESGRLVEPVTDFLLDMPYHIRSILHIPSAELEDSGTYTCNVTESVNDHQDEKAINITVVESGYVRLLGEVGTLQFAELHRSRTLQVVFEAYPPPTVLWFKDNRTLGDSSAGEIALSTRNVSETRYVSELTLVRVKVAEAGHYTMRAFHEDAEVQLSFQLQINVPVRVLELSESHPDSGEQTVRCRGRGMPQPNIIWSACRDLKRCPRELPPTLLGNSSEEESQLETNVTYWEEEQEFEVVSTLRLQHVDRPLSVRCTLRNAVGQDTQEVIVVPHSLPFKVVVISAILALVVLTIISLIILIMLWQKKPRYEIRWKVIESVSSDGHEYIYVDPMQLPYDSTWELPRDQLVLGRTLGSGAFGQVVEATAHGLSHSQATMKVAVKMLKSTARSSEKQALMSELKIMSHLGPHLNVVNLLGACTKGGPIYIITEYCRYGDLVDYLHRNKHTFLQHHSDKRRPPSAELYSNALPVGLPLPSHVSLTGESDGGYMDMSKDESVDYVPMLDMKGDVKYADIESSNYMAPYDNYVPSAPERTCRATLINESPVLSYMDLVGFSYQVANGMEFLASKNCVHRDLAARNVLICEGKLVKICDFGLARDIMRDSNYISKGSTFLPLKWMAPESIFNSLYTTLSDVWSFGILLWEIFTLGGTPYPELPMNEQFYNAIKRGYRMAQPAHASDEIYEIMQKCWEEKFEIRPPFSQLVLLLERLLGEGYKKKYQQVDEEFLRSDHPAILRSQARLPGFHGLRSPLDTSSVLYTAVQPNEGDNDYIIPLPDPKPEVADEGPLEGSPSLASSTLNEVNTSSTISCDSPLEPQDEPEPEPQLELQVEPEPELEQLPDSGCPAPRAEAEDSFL

[11] = molecular target: Tyrosine-protein kinase BTK (Homo sapiens) (UniProt Q06187); assay: Inhibition of human full length recombinant BTK at 5 nM by radiometric scintillation counting analysis relative to control
Chain of Tyrosine-protein kinase BTK (Homo sapiens) (Q06187 whole entry): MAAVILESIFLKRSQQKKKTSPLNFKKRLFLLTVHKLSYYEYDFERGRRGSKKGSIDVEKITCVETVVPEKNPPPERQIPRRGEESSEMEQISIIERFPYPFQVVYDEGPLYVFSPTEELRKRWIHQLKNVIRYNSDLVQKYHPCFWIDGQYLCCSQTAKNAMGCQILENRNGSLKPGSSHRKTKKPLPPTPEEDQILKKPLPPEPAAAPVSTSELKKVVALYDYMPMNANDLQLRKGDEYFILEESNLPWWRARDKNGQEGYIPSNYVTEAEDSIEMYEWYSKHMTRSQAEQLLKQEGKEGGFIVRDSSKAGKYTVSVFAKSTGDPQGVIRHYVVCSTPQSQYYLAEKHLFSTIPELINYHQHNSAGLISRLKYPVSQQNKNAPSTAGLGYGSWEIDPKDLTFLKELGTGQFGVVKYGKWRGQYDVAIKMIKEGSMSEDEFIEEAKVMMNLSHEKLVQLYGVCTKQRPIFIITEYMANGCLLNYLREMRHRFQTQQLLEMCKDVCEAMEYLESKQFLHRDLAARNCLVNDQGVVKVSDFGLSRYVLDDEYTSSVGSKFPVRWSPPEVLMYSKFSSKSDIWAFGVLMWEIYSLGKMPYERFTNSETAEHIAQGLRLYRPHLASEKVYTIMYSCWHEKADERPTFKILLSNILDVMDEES

[12] = molecular target: T3, Tyrosine-protein kinase Blk (Homo sapiens, UniProt P51451); assay: Inhibition of human full length recombinant BLK at 50 nM by radiometric scintillation counting analysis relative to control
[13] = molecular target: T1, Tyrosine-protein kinase ITK/TSK (Homo sapiens); assay: Inhibition of human recombinant ITK (352 to 617) at 5 nM by radiometric scintillation counting analysis relative to control
[14] = molecular target: T3, Tyrosine-protein kinase Blk; assay: Inhibition of human full length recombinant BLK at 5 nM by radiometric scintillation counting analysis relative to control
[15] = molecular target: Platelet-derived growth factor receptor beta (Homo sapiens) (UniProt P09619); assay: Inhibition of human recombinant PDGFRbeta (557 to end) at 500 nM by radiometric scintillation counting analysis relative to control
[16] = molecular target: Platelet-derived growth factor receptor alpha (Homo sapiens) (UniProt P16234); assay: Inhibition of human recombinant PDGFRalpha (550 to end) at 500 nM by radiometric scintillation counting analysis relative to control
Chain of Platelet-derived growth factor receptor alpha (Homo sapiens) (P16234 whole entry): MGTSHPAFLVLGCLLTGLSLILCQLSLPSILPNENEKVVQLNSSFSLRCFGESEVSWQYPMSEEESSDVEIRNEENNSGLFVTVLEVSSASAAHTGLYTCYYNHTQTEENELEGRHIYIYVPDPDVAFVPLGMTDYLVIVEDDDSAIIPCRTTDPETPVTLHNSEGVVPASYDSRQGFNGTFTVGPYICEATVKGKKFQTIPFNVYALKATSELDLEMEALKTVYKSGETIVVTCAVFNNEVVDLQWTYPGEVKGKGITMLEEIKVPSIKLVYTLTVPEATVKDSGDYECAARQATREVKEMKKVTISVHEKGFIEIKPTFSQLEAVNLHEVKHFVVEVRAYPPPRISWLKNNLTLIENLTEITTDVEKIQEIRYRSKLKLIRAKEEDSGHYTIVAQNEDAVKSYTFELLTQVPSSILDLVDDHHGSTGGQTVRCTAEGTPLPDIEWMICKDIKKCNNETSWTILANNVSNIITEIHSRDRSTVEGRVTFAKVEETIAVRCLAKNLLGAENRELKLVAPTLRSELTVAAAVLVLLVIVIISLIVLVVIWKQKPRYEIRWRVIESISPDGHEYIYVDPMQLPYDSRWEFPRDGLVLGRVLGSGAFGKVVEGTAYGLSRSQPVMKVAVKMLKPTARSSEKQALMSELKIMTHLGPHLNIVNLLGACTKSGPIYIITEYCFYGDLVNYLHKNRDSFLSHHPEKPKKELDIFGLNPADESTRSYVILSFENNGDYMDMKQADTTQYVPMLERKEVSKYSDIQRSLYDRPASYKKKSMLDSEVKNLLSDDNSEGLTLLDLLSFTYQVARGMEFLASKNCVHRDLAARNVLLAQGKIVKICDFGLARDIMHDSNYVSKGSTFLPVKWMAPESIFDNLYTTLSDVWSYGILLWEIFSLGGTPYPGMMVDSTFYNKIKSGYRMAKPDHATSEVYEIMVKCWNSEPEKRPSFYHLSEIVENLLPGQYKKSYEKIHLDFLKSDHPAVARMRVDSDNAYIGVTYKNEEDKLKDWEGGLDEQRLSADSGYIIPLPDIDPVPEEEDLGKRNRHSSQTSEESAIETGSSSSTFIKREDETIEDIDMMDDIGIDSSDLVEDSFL

Chain of Tyrosine-protein kinase ABL1 (P00519 whole entry): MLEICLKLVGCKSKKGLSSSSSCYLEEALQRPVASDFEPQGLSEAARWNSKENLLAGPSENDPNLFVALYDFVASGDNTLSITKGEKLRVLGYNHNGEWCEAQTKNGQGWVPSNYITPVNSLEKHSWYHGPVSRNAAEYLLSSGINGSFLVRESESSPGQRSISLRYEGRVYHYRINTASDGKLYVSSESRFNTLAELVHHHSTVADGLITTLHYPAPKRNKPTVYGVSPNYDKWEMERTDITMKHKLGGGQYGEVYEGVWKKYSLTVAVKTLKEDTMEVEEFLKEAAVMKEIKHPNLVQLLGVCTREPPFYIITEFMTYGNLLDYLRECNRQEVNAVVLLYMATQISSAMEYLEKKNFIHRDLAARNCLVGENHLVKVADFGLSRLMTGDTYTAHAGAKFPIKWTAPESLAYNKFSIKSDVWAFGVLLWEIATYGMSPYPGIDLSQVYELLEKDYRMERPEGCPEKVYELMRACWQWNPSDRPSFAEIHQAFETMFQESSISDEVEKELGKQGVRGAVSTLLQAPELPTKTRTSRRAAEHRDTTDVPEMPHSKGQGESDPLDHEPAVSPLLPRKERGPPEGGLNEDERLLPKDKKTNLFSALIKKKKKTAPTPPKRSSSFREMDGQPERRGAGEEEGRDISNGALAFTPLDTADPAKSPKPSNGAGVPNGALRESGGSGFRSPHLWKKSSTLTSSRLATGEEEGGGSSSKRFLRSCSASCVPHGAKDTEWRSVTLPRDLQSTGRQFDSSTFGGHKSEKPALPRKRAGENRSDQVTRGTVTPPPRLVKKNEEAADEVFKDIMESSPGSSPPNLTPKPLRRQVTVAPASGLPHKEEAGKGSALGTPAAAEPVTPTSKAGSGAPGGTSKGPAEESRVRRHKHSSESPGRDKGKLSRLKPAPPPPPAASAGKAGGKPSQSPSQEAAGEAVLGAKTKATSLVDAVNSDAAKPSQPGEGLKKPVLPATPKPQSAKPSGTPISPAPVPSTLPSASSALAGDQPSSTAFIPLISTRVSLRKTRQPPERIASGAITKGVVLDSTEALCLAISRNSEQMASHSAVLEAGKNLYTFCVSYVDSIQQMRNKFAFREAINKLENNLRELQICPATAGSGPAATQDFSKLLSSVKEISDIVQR

inhibition [1]	inhibition [2]	inhibition [3]	inhibition [4]	inhibition [5]	inhibition [6]	inhibition [7]	inhibition [8]	inhibition [9]	inhibition [10]	inhibition [11]	inhibition [12]	inhibition [13]	inhibition [14]	inhibition [15]	inhibition [16]	Structure (SMILES)
102%	-4%	94%	92%	-7%	96%	65%	39%	2%	1%	-4%	69%	0%	21%	71%	82%	Cc1ccc(C(=O)Nc2ccc(OC(F)(F)F)cc2)cc1C#Cc1cc(-c2cnn(C)c2)cnc1N
89%	19%	39%	64%	20%	19%	56%	34%	7%	12%	8%	13%	-5%	7%	83%	94%	Cc1ccc(C(=O)Nc2ccc(Cl)cc2Cl)cc1C#Cc1cc(-c2cnn(C)c2)cnc1N

Structure (SMILES)	inhibition [1]	inhibition [2]	inhibition [3]	inhibition [4]	inhibition [5]	inhibition [6]	inhibition [7]	inhibition [8]	inhibition [9]	inhibition [10]	inhibition [11]	inhibition [12]	inhibition [13]	inhibition [14]	inhibition [15]	inhibition [16]
Cc1ccc(C(=O)Nc2cc(C(F)(F)F)cc(C(F)(F)F)c2)cc1C#Cc1cc(-c2cnn(C)c2)cnc1N	104%	2%	98%	92%	9%	41%	17%	25%	2%	18%	16%	56%	-8%	22%	12%	18%
